Patent publication US8455397B2, “Penoxsulam as a turfgrass, vineyard and orchard floor herbicide” (Dow AgroSciences, LLC, priority 2005, dated 2013)

System: Hydrocotyle species (HYDSS)
Assay: Post emergent synergy field study, penoxsulam + dicamba granule
Type: in vivo
Details: 112 gai/Ha on 30-3-4 granule fertilizer, average of 2 studies 4 weeks after application
Experimental: Field and greenhouse studies were conducted to determine if there may be any synergistic response when penoxsulam is combined with other herbicides for post emergence broadleaf or sedge control. Field studies were conducted in established turfgrass sites containing a natural population of target broadleaf weeds. Replicated trials, containing a minimum of three replications and having individual plots ranging in size from 25 to 50 ft. sq (2.3 to 4.6 square meters), were initiated in the late spring when turf and weeds were actively growing. Granule treatments were uniformly applied to individual plots using a common hand-shaker method. Applications were made in the early morning when dew was present. Natural rainfall and supplemental irrigation were used to maintain healthy turf and active weed growth throughout the study period. Control of each weed species in the study site was made at 2, 4 and 8 weeks after treatment. Control was determined visually by comparing treated and untreated weeds and scored on a 0 to 100 percent scale where 0 corresponds to no control and 100 corresponds to complete kill.
Component A was penoxsulam at 0.02 or 0.04 lb ai/A. Component B was dicamba at 0.1 lb ai/A. Individual products and mixture were applied on a 30-3-4 granule fertilizer formulated to deliver 116 pounds fertilizer per acre (129 kg per hectare). Loadings for the individual component on the fertilizer were: • Penoxsulam 22.4 gai/Ha (0.02 lb ai/A)=0.017% • Penoxsulam 44.9 gai/Ha (0.04 lb ai/A)=0.034% • Dicamba 112 gae/Ha (0.1 lb ai/A)=0.086%
For combinations the same loadings were applied to the same granule carrier and applied as a single product to test area.

In the case of `COc1c(Cl)ccc(Cl)c1C(=O)O` [Dicamba, dicamba, reference compound], the “% Control Component B” value is reported as 29%.
